Test results taken from ChEMBL document CHEMBL3600324, “Design, synthesis and evaluation of MCH receptor 1 antagonists--Part II: Optimization of pyridazines toward reduced phospholipidosis and hERG inhibition” (Bioorg Med Chem Lett, 2015).

Tests used:
[1] = target: Melanin-concentrating hormone receptor 1 (Homo sapiens, UniProt Q99705); experiment: Displacement of [125I-MCH] from human MCH receptor 1 expressed in CHO cell membranes by scintillation counting method
[2] = target: T1, Muscarinic acetylcholine receptor M1 (Homo sapiens, UniProt P11229); experiment: Binding affinity to muscarinic M1 receptor (unknown origin)
T1 sequence (P11229 whole entry): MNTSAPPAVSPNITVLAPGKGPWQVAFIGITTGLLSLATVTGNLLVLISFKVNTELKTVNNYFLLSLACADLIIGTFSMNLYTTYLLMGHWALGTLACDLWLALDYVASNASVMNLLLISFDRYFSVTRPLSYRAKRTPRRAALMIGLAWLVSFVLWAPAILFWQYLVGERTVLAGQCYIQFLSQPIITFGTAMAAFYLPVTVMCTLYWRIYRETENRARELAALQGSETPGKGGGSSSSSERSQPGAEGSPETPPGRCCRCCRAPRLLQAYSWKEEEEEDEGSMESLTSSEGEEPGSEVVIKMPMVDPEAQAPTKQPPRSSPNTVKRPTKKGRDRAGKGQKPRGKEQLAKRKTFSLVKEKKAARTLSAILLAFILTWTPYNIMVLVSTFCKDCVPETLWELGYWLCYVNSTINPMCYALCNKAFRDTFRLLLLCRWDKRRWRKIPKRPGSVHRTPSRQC

CHO [3] = experiment: Selectivity index, ratio of IC50 for muscarinic M1 receptor (unknown origin) to IC50 for human MCH receptor 1 expressed in CHO cell membranes; format: cell-based
[4] = target: 5-hydroxytryptamine receptor 2A (Homo sapiens, UniProt P28223); experiment: Binding affinity to 5HT2A receptor (unknown origin)
CHO [5] = experiment: Selectivity index, ratio of IC50 for 5HT2A receptor (unknown origin) to IC50 for human MCH receptor 1 expressed in CHO cell membranes; format: cell-based
U-937 = experiment: Toxicity in human U937 cells assessed as phospholipidosis first effect concentration by Nile red based fluorescence assay; format: cell-based
hERG (KCNH2) [6] = target: T2, hERG (KCNH2) (Homo sapiens, UniProt Q12809); experiment: Inhibition of human ERG at 1 uM by patch clamp assay
[7] = Dissociation constant, pKa of the compound; format: physicochemical
Rattus norvegicus [8] = experiment: Dose normalized Cmax in Wistar rat at 11.9 umol/kg, po; format: ADME, organism-based; conditions: in vivo
[9] = Tmax in Wistar rat at 11.9 umol/kg, po; format: ADME, organism-based; conditions: in vivo
[10] = Mean residence time in Wistar rat at 11.9 umol/kg, po; format: ADME, organism-based; conditions: in vivo
Rattus norvegicus [11] = experiment: AUC in Wistar rat at 11.9 umol/kg, po; format: ADME, organism-based; conditions: in vivo
[12] = target: Voltage-gated inwardly rectifying potassium channel KCNH2 (Homo sapiens, UniProt Q12809); experiment: Inhibition of human ERG by patch clamp assay
Rattus norvegicus [13] = experiment: Dose normalized Cmax in Wistar rat at 10.9 umol/kg, po; format: ADME, organism-based; conditions: in vivo
[14] = Tmax in Wistar rat at 10.9 umol/kg, po; format: ADME, organism-based; conditions: in vivo
[15] = Mean residence time in Wistar rat at 10.9 umol/kg, po; format: ADME, organism-based; conditions: in vivo
Rattus norvegicus [16] = experiment: AUC in Wistar rat at 10.9 umol/kg, po; format: ADME, organism-based; conditions: in vivo
hERG (KCNH2) [17] = target: T2, hERG (KCNH2); experiment: Inhibition of human ERG at 10 uM by patch clamp assay
Rattus norvegicus [18] = experiment: Dose normalized Cmax in Wistar rat at 6.7 umol/kg, po; format: ADME, organism-based; conditions: in vivo
[19] = Tmax in Wistar rat at 6.7 umol/kg, po; format: ADME, organism-based; conditions: in vivo
[20] = Mean residence time in Wistar rat at 6.7 umol/kg, po; format: ADME, organism-based; conditions: in vivo
Rattus norvegicus [21] = experiment: AUC in Wistar rat at 6.7 umol/kg, po; format: ADME, organism-based; conditions: in vivo

T2 sequence (Q12809 whole entry): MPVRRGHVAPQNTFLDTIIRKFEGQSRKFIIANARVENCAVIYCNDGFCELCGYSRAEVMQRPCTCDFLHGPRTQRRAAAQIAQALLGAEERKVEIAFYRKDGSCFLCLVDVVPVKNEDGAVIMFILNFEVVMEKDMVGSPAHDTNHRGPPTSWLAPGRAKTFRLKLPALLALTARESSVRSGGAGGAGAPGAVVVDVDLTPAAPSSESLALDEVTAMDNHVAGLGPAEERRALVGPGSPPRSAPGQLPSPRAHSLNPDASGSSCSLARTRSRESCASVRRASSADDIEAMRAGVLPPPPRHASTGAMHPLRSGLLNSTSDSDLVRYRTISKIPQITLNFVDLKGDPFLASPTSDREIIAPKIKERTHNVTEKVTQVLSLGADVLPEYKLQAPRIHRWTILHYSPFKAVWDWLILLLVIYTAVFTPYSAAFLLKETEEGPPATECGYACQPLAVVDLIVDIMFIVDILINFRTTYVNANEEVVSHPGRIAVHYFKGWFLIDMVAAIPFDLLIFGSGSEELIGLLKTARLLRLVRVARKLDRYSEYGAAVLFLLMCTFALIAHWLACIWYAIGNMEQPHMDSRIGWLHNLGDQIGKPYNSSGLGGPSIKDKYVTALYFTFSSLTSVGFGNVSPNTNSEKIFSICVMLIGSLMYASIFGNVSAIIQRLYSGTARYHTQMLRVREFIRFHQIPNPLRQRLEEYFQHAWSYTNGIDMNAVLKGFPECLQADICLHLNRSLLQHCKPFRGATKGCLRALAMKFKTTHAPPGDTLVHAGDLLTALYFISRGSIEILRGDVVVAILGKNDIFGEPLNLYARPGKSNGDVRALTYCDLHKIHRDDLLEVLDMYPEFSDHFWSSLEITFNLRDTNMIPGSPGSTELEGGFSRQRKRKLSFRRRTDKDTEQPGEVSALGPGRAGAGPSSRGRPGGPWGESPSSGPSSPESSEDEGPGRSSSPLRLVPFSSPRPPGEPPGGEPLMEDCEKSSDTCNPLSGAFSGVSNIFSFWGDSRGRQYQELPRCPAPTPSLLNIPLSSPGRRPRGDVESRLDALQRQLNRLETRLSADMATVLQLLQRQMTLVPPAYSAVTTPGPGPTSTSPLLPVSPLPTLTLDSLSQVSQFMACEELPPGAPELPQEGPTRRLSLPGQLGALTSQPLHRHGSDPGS
Sequence of Melanin-concentrating hormone receptor 1 (Q99705 whole entry): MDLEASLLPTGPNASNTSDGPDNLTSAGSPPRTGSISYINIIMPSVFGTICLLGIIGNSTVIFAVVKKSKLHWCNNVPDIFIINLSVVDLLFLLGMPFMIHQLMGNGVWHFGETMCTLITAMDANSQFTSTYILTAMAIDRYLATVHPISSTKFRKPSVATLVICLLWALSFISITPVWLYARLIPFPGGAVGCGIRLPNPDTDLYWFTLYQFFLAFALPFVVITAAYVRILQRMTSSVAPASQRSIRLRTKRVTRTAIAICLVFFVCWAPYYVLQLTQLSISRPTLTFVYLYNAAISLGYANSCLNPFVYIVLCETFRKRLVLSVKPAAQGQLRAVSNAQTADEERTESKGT
Sequence of 5-hydroxytryptamine receptor 2A (P28223 whole entry): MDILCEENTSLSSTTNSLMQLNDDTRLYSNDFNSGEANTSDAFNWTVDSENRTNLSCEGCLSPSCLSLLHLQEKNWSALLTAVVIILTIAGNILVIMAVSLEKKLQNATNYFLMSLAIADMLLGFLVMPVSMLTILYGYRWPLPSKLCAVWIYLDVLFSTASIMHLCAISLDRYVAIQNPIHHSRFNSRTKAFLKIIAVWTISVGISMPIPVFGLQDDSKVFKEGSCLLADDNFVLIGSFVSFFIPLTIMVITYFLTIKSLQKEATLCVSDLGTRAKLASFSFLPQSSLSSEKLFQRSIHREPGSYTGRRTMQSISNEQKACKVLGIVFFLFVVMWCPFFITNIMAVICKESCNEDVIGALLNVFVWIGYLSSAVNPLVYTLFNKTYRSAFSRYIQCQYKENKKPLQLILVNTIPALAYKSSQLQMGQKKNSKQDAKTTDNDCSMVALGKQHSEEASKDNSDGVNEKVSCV
Sequence of Voltage-gated inwardly rectifying potassium channel KCNH2 (Q12809 whole entry): as the sequence (Q12809 whole entry) above

Compound	IC50 [1]	IC50 [2]	IC50 [4]	Activity (U-937)	inhibition at 1 µM (hERG (KCNH2) [6])	further results
O=C(CCc1ccc(-c2ccc(Cl)cc2)cc1)Nc1ccc(CN2CCCCC2)cc1	38 nM	89 nM	138 nM			Ratio IC50 (CHO [3]): 2; Ratio IC50 (CHO [5]): 4
OC1CCN(Cc2ccc(NCCCc3ccc(OCc4ccccc4)nn3)cc2)CC1	3 nM	> 10000 nM	> 10000 nM	50 µM	4%	
COc1ccc(-c2ccc(CCCNc3ccc(CN4CCC(NC(C)=O)CC4)cc3)nn2)cc1	10 nM	> 10000 nM	> 10000 nM	100 µM	7%	pKa [7]: 8.8; Cmax/dose (Rattus norvegicus [8]): 83 nM; Tmax [9]: 1.5 h; MRT [10]: 4 h; AUC/dose (Rattus norvegicus [11]): 476 nM·h
COc1ccc(-c2ccc(CCCNc3ccc(CN4CCC(O)CC4)cc3)nn2)cc1	20 nM	> 10000 nM	8820 nM	50 µM	10%	pKa [7]: 8.6
Clc1ccc(-c2ccc(CCCNc3ccc(CN4CCCCC4)cc3)cc2)cc1	3 nM	325 nM	680 nM		76%	Ratio IC50 (CHO [3]): 110; Ratio IC50 (CHO [5]): 230
OC1CCN(Cc2ccc(OCCCc3ccc(-c4ccc(F)cc4)nn3)cc2)CC1	186 nM	> 10000 nM	242 nM			
O[C@@H]1CCCN(Cc2ccc(OCCCc3ccc(-c4ccc(Cl)cc4)nn3)cc2)C1	15 nM	5470 nM	595 nM	6.25 µM	13%	
CC(=O)NC1CCN(Cc2ccc(OCCCc3ccc(Cc4ccccc4)nn3)cc2)CC1		> 10000 nM	> 10000 nM	100 µM	13%	
CN(C(=O)/C=C/c1ccc(-c2ccc(Cl)cc2)cc1)c1ccc(CN2CCCCC2)cc1	634 nM	625 nM	362 nM			Ratio IC50 (CHO [3]): 1; Ratio IC50 (CHO [5]): 1
CN(CCCc1ccc(-c2ccc(Cl)cc2)cc1)c1ccc(CN2CCCCC2)cc1		419 nM	646 nM			
O=C(/C=C/c1ccc(-c2ccc(Cl)cc2)cc1)Nc1ccc(CN2CCCCC2)cc1	16 nM	401 nM	1930 nM			Ratio IC50 (CHO [3]): 25; Ratio IC50 (CHO [5]): 121
CC(=O)NC1CCN(Cc2ccc(NCCCc3ccc(Oc4ccccc4)nn3)cc2)CC1		> 10000 nM	> 10000 nM	> 100 µM		IC50 [12]: > 10000 nM; Cmax/dose (Rattus norvegicus [13]): 24 nM; Tmax [14]: 2.8 h; MRT [15]: 6.4 h; AUC/dose (Rattus norvegicus [16]): 123 nM·h
N#Cc1ccc(-c2ccc(CCCNc3ccc(CN4CCCCC4)cc3)nn2)cc1		1920 nM	1460 nM			
OCC1CCN(Cc2ccc(OCCCc3ccc(-c4ccc(Cl)cc4)nn3)cc2)CC1		1650 nM	790 nM	12.5 µM		
Clc1ccc(-c2ccc(CCCNc3ccc(CN4CCCCC4)cc3)nn2)cc1	4 nM	310 nM	138 nM	6.25 µM	8%	
COc1ccc(-c2ccc(CCCNc3ccc(CN4CCOCC4)cc3)nn2)cc1	20 nM	> 10000 nM	> 10000 nM	12.5 µM	5%	pKa [7]: 7.6
OC1CCN(Cc2ccc(NCCCc3ccc(Oc4ccccc4)nn3)cc2)CC1	24 nM	> 10000 nM	> 10000 nM	50 µM		pKa [7]: 9.1; inhibition at 10 µM (hERG (KCNH2) [17]): 35%
OC1CCN(Cc2ccc(OCCCc3ccc(-c4ccc(Cl)cc4)nn3)cc2)CC1		> 10000 nM	1410 nM	25 µM	38%	
Fc1ccc(-c2ccc(CCCNc3ccc(CN4CCCCC4)cc3)nn2)cc1		3740 nM	34 nM			
COc1ccc(-c2ccc(CCCNc3ccc(CN4CCCC4)cc3)nn2)cc1	95 nM	1860 nM	4540 nM			
COc1ccc(-c2ccc(CCCNc3ccc(CN(C)C)cc3)nn2)cc1		1030 nM	4580 nM			
COc1ccc(-c2ccc(CCCNc3ccc(CN4CCCC(O)C4)cc3)nn2)cc1 (stereo not drawn)		> 10000 nM	> 10000 nM	25 µM	10%	
OCC1CCN(Cc2ccc(OCCCc3ccc(Oc4ccccc4)nn3)cc2)CC1		2110 nM	> 10000 nM	100 µM	8%	
COc1ccc(-c2ccc(CCCNc3ccc(CN4CCCCC4)cc3)nn2)cc1	7 nM	962 nM	1810 nM	6.25 µM		pKa [7]: 9
CC(=O)NC1CCN(Cc2ccc(OCCCc3ccc(-c4ccc(F)cc4)nn3)cc2)CC1	15 nM	4470 nM	713 nM	100 µM		
O[C@@H]1CCCN(Cc2ccc(OCCCc3ccc(Oc4ccccc4)nn3)cc2)C1		> 10000 nM	> 10000 nM			
CC(=O)NC1CCN(Cc2ccc(OCCCc3ccc(Oc4ccccc4)nn3)cc2)CC1	10 nM	> 10000 nM	9650 nM	100 µM		inhibition at 10 µM (hERG (KCNH2) [17]): 13%; Cmax/dose (Rattus norvegicus [18]): 531 nM; Tmax [19]: 0.8 h; MRT [20]: 2.9 h; AUC/dose (Rattus norvegicus [21]): 175 nM·h
O=C(C#Cc1ccc(-c2ccc(Cl)cc2)cc1)Nc1ccc(CN2CCCCC2)cc1		225 nM				
O=C(NCc1ccc(-c2ccc(Cl)cc2)cc1)Nc1ccc(CN2CCCCC2)cc1		511 nM	29 nM			
O=C(COc1ccc(-c2ccc(Cl)cc2)cc1)Nc1ccc(CN2CCCCC2)cc1	94 nM	446 nM	91 nM			Ratio IC50 (CHO [3]): 5; Ratio IC50 (CHO [5]): 1
